Values of other authors in patent US20240139208A1, “COMBINED PHARMACEUTICAL COMPOSITION CONTAINING CDK4/6 INHIBITOR AND USE THEREOF” (CHIA TAI TIANQING PHARMACEUTICAL GROUP CO., LTD., priority 2021, published 2024).

solubility in water: insoluble
Structure (SMILES): C[C@]12CC[C@@H]3c4ccc(O)cc4C[C@@H](CCCCCCCCC[S+]([O-])CCCC(F)(F)C(F)(F)F)[C@H]3[C@@H]1CC[C@@H]2O (stereo partly drawn) [Fulvestrant, 7-α-[9-(4,4,5,5,5-pentafluoropentylsulfinyl)nonyl]estra-1,3,5-(10)-triene-3,17-β-diol]
